How the values were obtained:
Format in all cases: in vivo
Chilo suppressalis = experiment: Example B1: activity against Chilo suppressalis (striped rice stemborer), artificial diet; settings: for percent control (mortality, anti-feedant effect or growth inhibition) at 200 ppm: 144 h, L2 larvae, 6 days after infestation, read-out: control (at least one of mortality, anti-feedant effect, growth inhibition)
Procedure, shortened: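 Diet-incorporation surface assay: aqueous dilutions of 10'000 ppm DMSO stock applied to artificial diet, dried; 6-8 L2 larvae/well; read day 6 post-infestation for mortality, antifeedant effect, growth inhibition vs untreated. Active if any category above untreated.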

Diabrotica balteata [1] = experiment: Example B2: activity against Diabrotica balteata (corn root worm), maize sprouts; settings: 96 h, L2 larvae, 4 days after infestation, read-out: effect in at least one of the two categories (mortality or growth inhibition)
Procedure, shortened: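 At 200 ppm, test solutions diluted in water from 10′000 ppm DMSO stocks were spray-applied to maize sprouts set on agar. Once dry, each well received 6–10 second-instar larvae. Four days later, mortality and growth inhibition were compared with untreated controls.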

Euschistus heros = experiment: Example B3: activity against Euschistus heros (neotropical brown stink bug), soybean leaves; settings: for percent effect (mortality or growth inhibition) at 200 ppm: 120 h, N2 nymphs, 5 days after infestation, read-out: effect in at least one of the two categories (mortality or growth inhibition)
Procedure, shortened: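 Soybean leaves on agar sprayed with aqueous dilutions of DMSO stock (10′000 ppm), dried, then infested with N2 nymphs. Mortality and growth inhibition scored against untreated samples 5 days after infestation; application rate 200 ppm.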

Myzus persicae [2] = experiment: Example B4: activity against Myzus persicae (green peach aphid), intrinsic activity; settings: 120 h, test rate 12 ppm, 5 days after infestation
Procedure, shortened: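 Mortality was read 5 days after infestation. Aphids on pea seedlings fed through a stretched Parafilm membrane on inverted 24-well plates containing sucrose solution mixed with test compound, which was diluted from 10′000 ppm DMSO stock.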

Plutella xylostella [3] = experiment: Example B5: activity against Plutella xylostella (diamond back moth), artificial diet, eggs; settings: 192 h, 8 days after infestation, read-out: effect in at least one of the two categories (mortality or growth inhibition)
Procedure, shortened: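 Scoring at 8 days post-infestation compared mortality and growth inhibition with untreated controls, on diet treated at 200 ppm with water-diluted DMSO stock solutions. Diamondback moth eggs were placed on the dried diet in 24-well plates.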

Spodoptera littoralis = experiment: Example B6: activity against Spodoptera littoralis (Egyptian cotton leaf worm), cotton leaf discs; settings: foliar; for percent control (mortality, anti-feedant effect or growth inhibition) at 200 ppm: 72 h, L1 larvae, 3 days after infestation, read-out: control (at least one of mortality, anti-feedant effect, growth inhibition)
Procedure, shortened: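 Spray application onto agar-supported cotton leaf discs used aqueous solutions derived from 10′000 ppm DMSO stocks. Once dry, discs were infested with five L1 larvae and evaluated after 3 days for mortality, anti-feeding and growth inhibition relative to untreated controls.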

Pseudoplusia includens = experiment: Example B9: Pseudoplusia includens (soybean looper), larvicide, feeding/contact, soybean plants; settings: Chrysodeixis includens; for percent effect (mortality or growth inhibition) at 50 ppm: 120 h, L2 larvae, 5 days after infestation, read-out: effect in at least one of the two categories (mortality or growth inhibition)
Procedure, shortened: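 Soybean plants sprayed, cut and held in dishes on wet filter paper; infested 1 d after application with 5 L2 larvae. Mortality and growth inhibition assessed 5 days after infestation; tested at 50 ppm.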

Diabrotica balteata [4] = experiment: B14a: Diabrotica balteata (corn root worm), larvicide, feeding/contact, corn seedlings
Source text: (§1) Activity of compounds P5, P17 and P21 according to the preparatory examples and of a compound from WO 21/083936 against Spodoptera littoralis (Example B6 above), Chilo suppressalis (Example B1 above), Diabrotica balteata (Example B14a below), Plutella xylostella (Example B14b below) and Pseudoplusia includens (Example B9 above) is summarized in Table B14. B14a: Diabrotica balteata (Corn root worm). Larvicide, feeding/contact 3 Corn seedlings were placed on wetted filter paper in plastic cups, and 3 ml of diluted test solutions were pipetted onto them. The cups were infested with 10 L2 larvae and checked for mortality and growth regulation 5 days after treatment. B14b: Plutella xylostella (Diamond back moth). Larvicide L3, feeding/contact Chinese cabbage plants were sprayed with diluted test solutions in an application chamber. Cut off leaves were placed into petri dishes with wetted filter paper and infested 1 day after application with 10 L3 larvae. Samples were assessed 4 days after infestation for mortality and growth regulation.

Plutella xylostella [5] = experiment: B14b: Plutella xylostella (diamond back moth), larvicide L3, feeding/contact, Chinese cabbage
Source text: as §1

Myzus persicae [6] = experiment: Example B7a: Myzus persicae feeding/contact activity, sunflower leaf discs; settings: foliar, 144 h, mixed ages, 6 days after infestation
Procedure: (§2) Sunflower leaf discs were placed onto agar in a 24-well microtiter plate and sprayed with aqueous test solutions prepared from 10′000 ppm DMSO stock solutions. After drying, the leaf discs were infested with an aphid population of mixed ages. The samples were assessed for mortality 6 days after infestation.

Tetranychus urticae = experiment: Example B8: activity against Tetranychus urticae (two-spotted spider mite), bean leaf discs; settings: foliar, 192 h, mixed population (mobile stages), 8 days after infestation
Procedure: Bean leaf discs on agar in 24-well microtiter plates were sprayed with aqueous test solutions prepared from 10′000 ppm DMSO stock solutions. After drying the leaf discs were infested with a mite population of mixed ages. The samples were assessed for mortality on mixed population (mobile stages) 8 days after infestation.

[7] = test system: Carpocapsa (Cydia) pomonella; experiment: Example B10: Carpocapsa (Cydia) pomonella (codling moth), larvicide, feeding/contact, diet cubes; settings: 336 h, L1 larvae, 14 days after infestation, read-out: effect in at least one of the two categories (mortality or growth inhibition)
Procedure: Diet cubes coated with paraffin were sprayed with diluted test solutions in an application chamber. After drying off the treated cubes (10 replicates) were infested with 1 L1 larvae. Samples were incubated at 26-27° C. and checked 14 days after infestation for mortality and growth inhibition. The following compounds gave an effect of at least 80% in at least one of the two categories (mortality or growth inhibition) at an application rate of 50 ppm: […]

Myzus persicae [8] = experiment: Example B7b: Myzus persicae feeding/contact activity, eggplant leaf discs; settings: foliar, 144 h, mixed ages, 6 days after infestation
Procedure: as §2, with “Eggplant” for “Sunflower”

Which results are given for `C[C@H](Nc1ncnc2c(C(F)(F)F)cc(Cl)cc12)c1ncnn1-c1cc(C(N)=O)ncn1` [Compound P5, 6-[5-[(1S)-1-[[6-chloro-8-(trifluoromethyl)quinazolin-4-yl]amino]ethyl]-1,2,4-triazol-1-yl]pyrimidine-4-carboxamide]?
mortality at 3.12 ppm (Chilo suppressalis): 80%; percent control (mortality, anti-feedant effect or growth inhibition) at 200 ppm (Chilo suppressalis): ≥ 80%; percent effect (mortality or growth inhibition) at 200 ppm (Diabrotica balteata [1]): ≥ 80%; mortality at 200 ppm (Euschistus heros): 100%; percent effect (mortality or growth inhibition) at 200 ppm (Euschistus heros): ≥ 80%; mortality at 12 ppm (Myzus persicae [2]): ≥ 80%; percent effect (mortality or growth inhibition) at 200 ppm (Plutella xylostella [3]): ≥ 80%; mortality at 3.12 ppm (Spodoptera littoralis): 100%; percent control (mortality, anti-feedant effect or growth inhibition) at 200 ppm (Spodoptera littoralis): ≥ 80%; percent effect (mortality or growth inhibition) at 50 ppm (Pseudoplusia includens): ≥ 80%; mortality at 0.8 ppm (Pseudoplusia includens; Pseudoplusia includens, 0.8 ppm): 70%; mortality at 12.5 ppm (Pseudoplusia includens; Pseudoplusia includens): 100%; mortality at 0.8 ppm (Diabrotica balteata [4]): 100%; mortality at 0.8 ppm (Plutella xylostella [5]): 95%; mortality at 3 ppm (Plutella xylostella [5]): 100%

For `C[C@H](Nc1ncnc2c(I)cc(Cl)cc12)c1ncnn1-c1cc(C(N)=O)ncn1` [Compound P13, 6-[5-[(1S)-1-[(6-chloro-8-iodo-quinazolin-4-yl)amino]ethyl]-1,2,4-triazol-1-yl]pyrimidine-4-carboxamide], which percent control (mortality, anti-feedant effect or growth inhibition) at 200 ppm (Chilo suppressalis) is on record?
The percent control (mortality, anti-feedant effect or growth inhibition) at 200 ppm was no less than 80%.

And the percent effect (mortality or growth inhibition) at 200 ppm (Diabrotica balteata [1])?
Its percent effect (mortality or growth inhibition) at 200 ppm is no less than 80%.

What about the mortality at 12 ppm (Myzus persicae [2]) of the same compound?
Its mortality at 12 ppm is no less than 80%.

What about the percent effect (mortality or growth inhibition) at 200 ppm (Plutella xylostella [3]) of the same compound?
Its percent effect (mortality or growth inhibition) at 200 ppm is no less than 80%.

And the percent control (mortality, anti-feedant effect or growth inhibition) at 200 ppm (Spodoptera littoralis)?
The percent control (mortality, anti-feedant effect or growth inhibition) at 200 ppm was no less than 80%.

What about the mortality at 200 ppm (Myzus persicae [6]) of the same compound?
Its mortality at 200 ppm is no less than 80%.

What about the mortality at 200 ppm (Tetranychus urticae) of the same compound?
Its mortality at 200 ppm is no less than 80%.

And the percent effect (mortality or growth inhibition) at 50 ppm (Pseudoplusia includens)?
Its percent effect (mortality or growth inhibition) at 50 ppm is no less than 80%.

And the percent effect (mortality or growth inhibition) at 50 ppm [7]?
Its percent effect (mortality or growth inhibition) at 50 ppm is no less than 80%.

What does the source list for `C[C@H](Nc1ncnc2c(Cl)cc(C(F)(F)F)cc12)c1ncnn1-c1cc(C(N)=O)ncn1` [Compound P17, 6-[5-[(1S)-1-[[8-chloro-6-(trifluoromethyl)quinazolin-4-yl]amino]ethyl]-1,2,4-triazol-1-yl]pyrimidine-4-carboxamide]?
mortality at 3.12 ppm (Chilo suppressalis): 40%; percent control (mortality, anti-feedant effect or growth inhibition) at 200 ppm (Chilo suppressalis): ≥ 80%; percent effect (mortality or growth inhibition) at 200 ppm (Diabrotica balteata [1]): ≥ 80%; mortality at 200 ppm (Euschistus heros): 80%; percent effect (mortality or growth inhibition) at 200 ppm (Euschistus heros): ≥ 80%; mortality at 12 ppm (Myzus persicae [2]): ≥ 80%; percent effect (mortality or growth inhibition) at 200 ppm (Plutella xylostella [3]): ≥ 80%; mortality at 3.12 ppm (Spodoptera littoralis): 100%; percent control (mortality, anti-feedant effect or growth inhibition) at 200 ppm (Spodoptera littoralis): ≥ 80%; mortality at 200 ppm (Tetranychus urticae): ≥ 80%; percent effect (mortality or growth inhibition) at 50 ppm (Pseudoplusia includens): ≥ 80%; mortality at 3 ppm (Pseudoplusia includens; Pseudoplusia includens, 3 ppm): 80%; mortality at 12.5 ppm (Pseudoplusia includens; Pseudoplusia includens): 100%; percent effect (mortality or growth inhibition) at 50 ppm [7]: ≥ 80%; mortality at 0.8 ppm (Diabrotica balteata [4]): 100%; mortality at 0.8 ppm (Plutella xylostella [5]): 100%; mortality at 3 ppm (Plutella xylostella [5]): 100%

`C[C@H](Nc1ncnc2c(C(F)(F)F)cc(Cl)cc12)c1ncnn1-c1cnc(C(N)=O)cn1` [Compound P21, 5-[5-[(1S)-1-[[6-chloro-8-(trifluoromethyl)quinazolin-4-yl]amino]ethyl]-1,2,4-triazol-1-yl]pyrazine-2-carboxamide] was tested. Which mortality at 3.12 ppm (Chilo suppressalis) did it give?
Its mortality at 3.12 ppm is 0%.

And the percent control (mortality, anti-feedant effect or growth inhibition) at 200 ppm (Chilo suppressalis)?
Its percent control (mortality, anti-feedant effect or growth inhibition) at 200 ppm is no less than 80%.

And the percent effect (mortality or growth inhibition) at 200 ppm (Diabrotica balteata [1])?
Its percent effect (mortality or growth inhibition) at 200 ppm is no less than 80%.

What about the mortality at 12 ppm (Myzus persicae [2]) of the same compound?
The mortality at 12 ppm was no less than 80%.

And the percent effect (mortality or growth inhibition) at 200 ppm (Plutella xylostella [3])?
The percent effect (mortality or growth inhibition) at 200 ppm was no less than 80%.

And the mortality at 3.12 ppm (Spodoptera littoralis)?
The mortality at 3.12 ppm was 100%.

What about the percent control (mortality, anti-feedant effect or growth inhibition) at 200 ppm (Spodoptera littoralis) of the same compound?
Its percent control (mortality, anti-feedant effect or growth inhibition) at 200 ppm is no less than 80%.

What about the mortality at 200 ppm (Myzus persicae [8]) of the same compound?
The mortality at 200 ppm was no less than 80%.

What about the percent effect (mortality or growth inhibition) at 50 ppm (Pseudoplusia includens) of the same compound?
The percent effect (mortality or growth inhibition) at 50 ppm was no less than 80%.

What about the mortality at 12.5 ppm (Pseudoplusia includens; Pseudoplusia includens) of the same compound?
Its mortality at 12.5 ppm is 40%.

And the mortality at 0.8 ppm (Diabrotica balteata [4])?
The mortality at 0.8 ppm was 65%.

What about the mortality at 3 ppm (Plutella xylostella [5]) of the same compound?
The mortality at 3 ppm was 100%.

`C[C@H](Nc1ncnc2c(C(F)(F)F)cc(C(F)(F)F)cc12)c1ncnn1-c1ccc(C(N)=O)cn1` [WO 21/083936 P.157, reference compound] was tested. Which mortality at 3.12 ppm (Chilo suppressalis) did it give?
Its mortality at 3.12 ppm is 0%.

What about the mortality at 3.12 ppm (Spodoptera littoralis) of the same compound?
The mortality at 3.12 ppm was 0%.

What about the mortality at 12.5 ppm (Pseudoplusia includens; Pseudoplusia includens) of the same compound?
Its mortality at 12.5 ppm is 10%.

And the mortality at 0.8 ppm (Diabrotica balteata [4])?
Its mortality at 0.8 ppm is 35%.

What about the mortality at 3 ppm (Plutella xylostella [5]) of the same compound?
Its mortality at 3 ppm is 65%.
